16 molecules from patent US20260297042A1, “BIARYLAMIDE DERIVATIVES AND THEIR USE AS PKMYT1 INHIBITORS” (CANCER RESEARCH TECHNOLOGY LIMITED, priority 2023, published 2026) can be followed below.

For assay [1], the system named is OVCAR 3 cells. The assay is described as follows: Cancer cell line proliferation assay, ATP-based cell viability (Cell Titre Glow), OVCAR 3 (CCNE1-amplified). The note with it: for Selectivity ratio KYSE30 Gl50 vs. OVCAR3 Gl50: KYSE30 (normal CCNE1) GI50 vs. OVCAR 3 (CCNE1-amplified) GI50. Here is the method:
(§1) Cancer cell lines with either normal (KYSE-30) or amplified CCNE1 expression (OVCAR 3 —ovarian cancer) were evaluated for their sensitivity to PKMYT1 inhibitors using Cell Titre Glow assay (Promega G7573) as endpoint to assess cell proliferation. The luminescence signal was read on a PHERAStar FS microplate reader (BMG Labtech). Data analysis was performed using Microsoft Excel® and Gl50 (concentration that achieves 50% cell growth proliferation inhibition) estimates generated with GraphPad Prism v9.

Assay [2] concerns the target T1, Human PKMYT1 (Homo sapiens, UniProt Q99640).
T1 construct: Human PKMYT1 75-362 was cloned as a TEV cleavable 6xHis fusion; 6xHis (TEV cleavable) (cleaved yes); made in house; host or cells: bacterial cells
T1 sequence (Q99640 75-362): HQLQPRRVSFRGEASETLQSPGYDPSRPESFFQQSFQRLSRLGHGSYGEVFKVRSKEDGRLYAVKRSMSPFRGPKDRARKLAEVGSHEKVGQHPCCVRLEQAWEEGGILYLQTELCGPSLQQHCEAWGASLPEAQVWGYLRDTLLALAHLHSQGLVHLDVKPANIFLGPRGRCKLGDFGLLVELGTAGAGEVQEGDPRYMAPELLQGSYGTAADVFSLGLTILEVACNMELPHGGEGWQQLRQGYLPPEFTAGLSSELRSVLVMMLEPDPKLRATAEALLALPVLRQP
The assay is described as follows: PKMYT1 biochemical ADP-Glo enzymatic assay. Particulars: ADP-Glo. A digest of the protocol: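 Intrinsic ATPase activity of E. coli-expressed, tag-cleaved human PKMYT1 kinase domain (75-362), 15 nM, with 500 µM ATP in HEPES pH 7.5/MgCl2/EGTA/Brij-35, 1% DMSO, 60 min at 26 °C. ADP formed was read by ADP-Glo Max luminescence; IC50 from 10-point, 3-fold dilution curves.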
(In general: ADP-Glo turns the ADP formed in a reaction into a luminescent signal.)

For assay [3], the target named is T2, WEE1 (Homo sapiens, UniProt P30291).
T2 construct: purchased Thermo Fisher PR7373A
T2 sequence (P30291 whole entry): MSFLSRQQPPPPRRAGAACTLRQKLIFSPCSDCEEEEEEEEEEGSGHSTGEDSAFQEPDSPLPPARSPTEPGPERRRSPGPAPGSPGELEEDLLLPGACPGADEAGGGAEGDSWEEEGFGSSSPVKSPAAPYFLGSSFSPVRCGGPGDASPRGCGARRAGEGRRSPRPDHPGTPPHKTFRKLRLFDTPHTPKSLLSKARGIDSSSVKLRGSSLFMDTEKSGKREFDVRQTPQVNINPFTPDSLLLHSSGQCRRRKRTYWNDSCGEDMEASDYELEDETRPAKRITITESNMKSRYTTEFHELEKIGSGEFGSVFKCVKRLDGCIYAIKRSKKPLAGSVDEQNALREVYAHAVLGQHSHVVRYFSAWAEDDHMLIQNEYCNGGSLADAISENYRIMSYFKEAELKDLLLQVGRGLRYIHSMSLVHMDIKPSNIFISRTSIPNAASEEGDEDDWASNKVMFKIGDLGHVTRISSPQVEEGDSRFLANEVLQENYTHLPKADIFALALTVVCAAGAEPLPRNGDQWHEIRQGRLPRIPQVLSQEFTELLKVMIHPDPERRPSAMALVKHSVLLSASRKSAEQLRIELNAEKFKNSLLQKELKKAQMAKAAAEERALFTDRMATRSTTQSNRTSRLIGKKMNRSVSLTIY
The assay is described as follows: Selectivity versus WEE1 assay (ADP-Glo enzymatic assay). It is filed as biochemical. Particulars: for IC50: ADP-Glo; for PKMYT1 vs. WEE1 selectivity: fold difference in selectivity for PKMYT1 over WEE1. In outline: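 Kinase at 15 nM final in 50 mM HEPES pH 7.5, 10 mM MgCl2, 1 mM EGTA, 0.01% Brij-35, 1% DMSO was started with 30 µM ATP and run 60 min at 26° C. ADP formed was read by ADP-Glo luminescence; IC50 came from dose-response curves.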

Assay [4] relates to KYSE-30 cells. As to the kind of experiment: Cancer cell line proliferation assay, ATP-based cell viability (Cell Titre Glow), KYSE-30 (normal CCNE1). The note with it: Homo sapiens, KYSE-30 cells (normal CCNE1), concentration that achieves 50% cell growth proliferation inhibition, read-out: KYSE30 Gl50. As for the experimental part: as §1
The mark [5] stands for this setting: 15 nM PKMYT1 kinase domain, 500 µM ATP, 60 minutes at 26° C., banded.
[6] abbreviates: 15 nM WEE1, 60 minutes at 26° C., banded.
[7] abbreviates: banded, ">N" = at least in this band but could be higher.
[8] abbreviates: PKMYT1 kinase domain 15 nM, banded values.

On to `COc1ccc(NC(=O)C(C)(C)C)nc1Nc1ncc(C(=O)Nc2c(C)ccc(O)c2C)s1.Cl` [BAA-330, N-(3-Hydroxy-2.6-dimethylphenyl)-2-((3-methoxy-6-pivalamidopyridin-2-yl)amino)thiazole-5-carboxamide hydrochloride], for which the “Selectivity ratio KYSE30 Gl50 vs. OVCAR3 Gl50” value in assay [1] was “Y (>20 fold)”. For the same molecule, the IC50 (commonly the concentration needed to halve the response being measured) in assay [2] (setting [5]) is less than 50 nM; in assay [3] (setting [6]), greater than 11000 nM. Besides, the “PKMYT1 vs. WEE1 selectivity” value in assay [3] (setting [7]) is recorded as “Y (1000-5000 fold)”. In assay [4], the GI50 is 500 to 5000 nM.
As to `Cc1ccc(O)c(C)c1NC(=O)c1cnc(Nc2cccc(-c3cnn(C(F)F)c3)n2)s1` [BAA-399, 2-((6-(1-(difluoromethyl)-1H-pyrazol-4-yl)pyridin-2-yl)amino)-N-(3-hydroxy-2,6-dimethylphenyl)thiazole-5-carboxamide], in assay [1], the “Selectivity ratio KYSE30 Gl50 vs. OVCAR3 Gl50” value is on record as “Y (>20 fold)”. Further, the IC50 in assay [2] (setting [8]) was less than 50 nM; in assay [3] (WEE1 15 nM, banded values), 1000 to 11000 nM. Besides, the “PKMYT1 vs. WEE1 selectivity” value in assay [3] (banded) was “X (100-<1000 fold)”. For the same molecule, in assay [4], the GI50 lay within 500 to 5000 nM.
The matching figures for `Cc1ccc(O)c(C)c1NC(=O)c1cnc(Nc2cccc(OC(C)C)n2)s1` [BAA-429, N-(3-hydroxy-2,6-dimethylphenyl)-2-((6-isopropoxypyridin-2-yl)amino)thiazole-5-carboxamide]: “Y (>20 fold)”, less than 50 nM, greater than 11000 nM, “X (100-<1000 fold)” and less than 500 nM.
In the case of `Cc1cn(-c2cnc(Cl)cc2Br)nc1Nc1ncc(C(=O)Nc2c(C)ccc(O)c2C)s1` [BAA-378], the “Selectivity ratio KYSE30 Gl50 vs. OVCAR3 Gl50” value in assay [1] was “X (3-20 fold)”. The IC50 in assay [2] (setting [5]) was in the range of 50 to 1000 nM; in assay [3] (setting [6]), 1000 to 11000 nM. Besides, the “PKMYT1 vs. WEE1 selectivity” value in assay [3] (setting [7]) was “W (10-<100 fold)”. Moreover, in assay [4], the GI50 was 500 to 5000 nM.
As to `CCCn1nc(Nc2ncc(C(=O)Nc3c(C)ccc(O)c3C)s2)c2ccccc21` [BAA-460, N-(3-hydroxy-2,6-dimethylphenyl)-2-((1-propyl-1H-indazol-3-yl)amino)thiazole-5-carboxamide], in assay [1], the “Selectivity ratio KYSE30 Gl50 vs. OVCAR3 Gl50” value is on record as “Y (>20 fold)”. In addition, the IC50 in assay [2] (setting [8]) fell in the range of 50 to 1000 nM; in assay [3] (WEE1 15 nM, banded values) it was 1000 to 11000 nM. The “PKMYT1 vs. WEE1 selectivity” value in assay [3] (banded) is on record as “X (100-<1000 fold)”. The GI50 in assay [4] was in the range of 500 to 5000 nM.
The matching figures for `Cc1ccc(O)c(C)c1NC(=O)c1cnc(Nc2nn(CCBr)cc2Cl)s1` [BAA-574, 2-((1-(2-Bromoethyl)-4-chloro-1H-pyrazol-3-yl)amino)-N-(3-hydroxy-2,6-dimethylphenyl)thiazole-5-carboxamide]: “X (3-20 fold)”, less than 50 nM, 1000 to 11000 nM, “W (10-<100 fold)” and 500 to 5000 nM.
For `Cc1cn(CC(=O)N2CCC(C)C2)nc1Nc1ncc(C(=O)Nc2c(C)ccc(O)c2C)s1` (stereo not drawn) [BAA-497, N-(3-hydroxy-2,6-dimethylphenyl)-2-((4-methyl-1-(2-(3-methylpyrrolidin-1-yl)-2-oxoethyl)-1H-pyrazol-3-yl)amino)thiazole-5-carboxamide] the same measures were “Y (>20 fold)”, less than 50 nM, 1000 to 11000 nM, “X (100-<1000 fold)” and greater than 5000 nM.
For `COC[C@@H]1CCCN1C(=O)Cn1cc(C)c(Nc2ncc(C(=O)Nc3c(C)ccc(O)c3C)s2)n1` [BAA-606, (S)-N-(3-hydroxy-2,6-dimethylphenyl)-2-((1-(2-(2-(methoxymethyl)pyrrolidin-1-yl)-2-oxoethyl)-4-methyl-1H-pyrazol-3-yl)amino)thiazole-5-carboxamide] the same measures were “Y (>20 fold)”, less than 50 nM, 1000 to 11000 nM, “X (100-<1000 fold)” and 500 to 5000 nM.
`Cc1ccc(O)c(C)c1NC(=O)c1cnc(Nc2nn(-c3ccccn3)cc2Cl)s1` [BAA-383, 2-((4-chloro-1-(pyridin-2-yl)-1H-pyrazol-3-yl)amino)-N-(3-hydroxy-2,6-dimethylphenyl) thiazole-5-carboxamide]: the “Selectivity ratio KYSE30 Gl50 vs. OVCAR3 Gl50” value in assay [1] was “X (3-20 fold)”. In addition, the results for the IC50 in assay [2] (setting [5]) and in assay [3] (setting [6]) were less than 50 nM and greater than 11000 nM, respectively. The “PKMYT1 vs. WEE1 selectivity” value in assay [3] (setting [7]) is recorded as “Y (1000-5000 fold)”. Also, the GI50 in assay [4] was 500 to 5000 nM.
Take `COCCn1cc(C)c(Nc2ncc(C(=O)Nc3c(C)ccc(O)c3C)s2)n1` [BAA-490, N-(3-hydroxy-2,6-dimethylphenyl)-2-((1-(2-methoxyethyl)-4-methyl-1H-pyazol-3-yl)amino)thiazole-5-carboxamide]: in assay [1], the “Selectivity ratio KYSE30 Gl50 vs. OVCAR3 Gl50” value was “Y (>20 fold)”. Besides, the IC50 is less than 50 nM in assay [2] (setting [8]) and 1000 to 11000 nM in assay [3] (WEE1 15 nM, banded values). For the same molecule, the “PKMYT1 vs. WEE1 selectivity” value in assay [3] (banded) was “X (100-<1000 fold)”. Moreover, in assay [4], the GI50 is greater than 5000 nM.
Consider `Cc1ccc(O)c(C)c1NC(=O)c1cnc(Nc2ccn(C3CCC3)n2)s1` [BAA-013, 2-[(1-cyclobutylpyrazol-3-yl)amino]-N-(3-hydroxy-2,6-dimethyl-phenyl)thiazole-5-carboxamide], for which the GI50 in assay [1] (Homo sapiens, OVCAR 3 cells (CCNE1-amplified), concentration that achieves 50% cell growth proliferation inhibition, read-out: OVCAR 3 Gl50) is 500 to 5000 nM; in assay [4], greater than 5000 nM. For the same molecule, the “Selectivity ratio KYSE30 Gl50 vs. OVCAR3 Gl50” value in assay [1] is recorded as “X (3-20 fold)”. For the same molecule, the IC50 in assay [2] (setting [5]) is less than 50 nM; in assay [3] (setting [6]), 1000 to 11000 nM. In assay [3] (setting [7]), the “PKMYT1 vs. WEE1 selectivity” value is listed as “W (10-<100 fold)”.
With `Cc1cn(CC(=O)N2CCCC2C)nc1Nc1ncc(C(=O)Nc2c(C)ccc(O)c2C)s1` (stereo not drawn) [BAA-492, N-(3-hydroxy-2,6-dimethylphenyl)-2-((4-methyl-1-(2-(2-methylpyrrolidin-1-yl)-2-oxoethyl)-1H-pyrazol-3-yl)amino)thiazole-5-carboxamide], the “Selectivity ratio KYSE30 Gl50 vs. OVCAR3 Gl50” value in assay [1] is recorded as “Y (>20 fold)”. Also, the IC50 in assay [2] (setting [8]) was less than 50 nM; in assay [3] (WEE1 15 nM, banded values), 1000 to 11000 nM. Also, in assay [3] (banded), the “PKMYT1 vs. WEE1 selectivity” value was “X (100-<1000 fold)”. Besides, the GI50 in assay [4] was greater than 5000 nM.
With `Cc1ccc(O)c(C)c1NC(=O)c1cnc(Nc2cccc(-c3cc(F)cc(F)c3)n2)s1` [BAA-315, 2-((6-(3,5-difluorophenyl)pyridin-2-yl)amino)-N-(3-hydroxy-2,6-dimethylphenyl)thiazole-5-carboxamide], in assay [1], the “Selectivity ratio KYSE30 Gl50 vs. OVCAR3 Gl50” value was “Y (>20 fold)”. In addition, the IC50 in assay [2] (setting [5]) was less than 50 nM; in assay [3] (setting [6]) it was greater than 11000 nM. Also, in assay [3] (setting [7]), the “PKMYT1 vs. WEE1 selectivity” value is recorded as “Y (1000-5000 fold)”. Besides, the GI50 in assay [4] lay within 500 to 5000 nM.
For `Cc1ccc(O)c(C)c1NC(=O)c1cnc(Nc2cc(C)n(C(C)C)n2)s1` [BAA-233, N-(3-hydroxy-2,6-dimethylphenyl)-2-((1-isopropyl-5-methyl-1H-pyrazol-3-yl)amino)thiazole-5-carboxamide] the same measures were “Y (>20 fold)”, less than 50 nM, 50 to 1000 nM, “W (10-<100 fold)” and greater than 5000 nM.
For `Cc1cn(-c2cccc(F)c2)nc1Nc1ncc(C(=O)Nc2c(C)ccc(O)c2C)s1` [BAA-368, 2-((1-(3-fluorophenyl)-4-methyl-1H-pyrazol-3-yl)amino)-N-(3-hydroxy-2,6-dimethylphenyl)thiazole-5-carboxamide] the same measures were “Y (>20 fold)”, less than 50 nM, greater than 11000 nM, “Y (1000-5000 fold)” and greater than 5000 nM.
For `CCOc1ccc(-n2cc(C)c(Nc3ncc(C(=O)Nc4c(C)ccc(O)c4C)s3)n2)cn1` [BAA-369, 2-((1-(6-ethoxypyridin-3-yl)-4-methyl-1H-pyrazol-3-yl)amino)-N-(3-hydroxy-2,6-dimethylphenyl)thiazole-5-carboxamide] the same measures were “Y (>20 fold)”, 50 to 1000 nM, greater than 11000 nM, “X (100-<1000 fold)” and greater than 5000 nM.
